Measurements: patent US11840686B2, “Modulation of prekallikrein (PKK) expression” (Ionis Pharmaceuticals, Inc., priority 2013, dated 2023)
Strand notation (5' to 3'): a small letter for the sugar, then the base; units joined by * are phosphorothioate-linked, units joined directly phosphodiester-linked; [ ] holds rarer units or linkages, { } end groups; capitals alone tell only the bases. e = 2'-O-(2-methoxyethyl) (MOE); k = constrained ethyl (cEt); [5mC] = 5-methylcytosine; d = 2'-deoxy (DNA)

System: human PKK mRNA
Assay: Antisense inhibition of human PKK mRNA in HepaRG cells, 1,000 nM, MOE/deoxy/cEt oligonucleotides (Example 3)
Type: cell-based
Conditions: HepaRG cells, electroporation with 1,000 nM antisense oligonucleotide, PKK mRNA by RT-PCR (RTS3454), relative to untreated control cells
In short: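 Readout is percent PKK mRNA reduction against untreated controls, by real-time PCR (RTS3454) adjusted for total RNA via RIBOGREEN. Oligonucleotides, phosphorothioate gapmers of 16 nucleosides with cEt, MOE and deoxy sugars, were delivered at 1,000 nM by electroporation to 20,000 HepaRG cells/well for roughly 24 h.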

[1] = Table 19, approximately 24 hours
[2] = approx. 24 hours, Table 25 experiment

Substance: 548148 (eG*e[5mC]*kA*dG*d[5mC]*dT*d[5mC]*dT*dG*dA*dG*dT*dG*k[5mC]*kA*e[5mC]; antisense) [compound 548148]
- % inhibition [1]: 66%

Substance: 548149 (eG*eA*k[5mC]*dA*dT*dT*dG*dT*d[5mC]*d[5mC]*dT*d[5mC]*dA*kG*k[5mC]*eA; antisense) [compound 548149]
- % inhibition [1]: 39%

Substance: 548150 (e[5mC]*eA*kG*dA*d[5mC]*dA*dT*dT*dG*dT*d[5mC]*d[5mC]*dT*k[5mC]*kA*eG; antisense) [compound 548150]
- % inhibition [1]: 60%

Substance: 548151 (eG*eG*kG*d[5mC]*dT*dT*d[5mC]*dA*dG*d[5mC]*d[5mC]*dA*dG*kA*k[5mC]*eA; antisense) [compound 548151]
- % inhibition [2]: 35%

Substance: 548152 (e[5mC]*eG*kG*dG*d[5mC]*dT*dT*d[5mC]*dA*dG*d[5mC]*d[5mC]*dA*kG*kA*e[5mC]; antisense) [compound 548152]
- % inhibition [2]: 32%

Substance: 548153 (eT*eG*k[5mC]*dT*dG*dA*dA*dA*dG*d[5mC]*dG*dG*dG*k[5mC]*kT*eT; antisense) [compound 548153]
- % inhibition [2]: 44%

Substance: 548154 (eG*eT*kG*d[5mC]*dT*dG*dA*dA*dA*dG*d[5mC]*dG*dG*kG*k[5mC]*eT; antisense) [compound 548154]
- % inhibition [2]: 7%

Substance: 548156 (eT*e[5mC]*kA*dG*d[5mC]*d[5mC]*d[5mC]*d[5mC]*dT*dG*dG*dT*dT*kA*k[5mC]*eG; antisense) [compound 548156]
- % inhibition [2]: 0%

Substance: 548157 (eA*eT*kT*dG*dT*d[5mC]*dA*dG*d[5mC]*d[5mC]*d[5mC]*d[5mC]*dT*kG*kG*eT; antisense) [compound 548157]
- % inhibition [2]: 7%

Substance: 548158 (eG*e[5mC]*kA*dT*dT*dG*dT*d[5mC]*dA*dG*d[5mC]*d[5mC]*d[5mC]*k[5mC]*kT*eG; antisense) [compound 548158]
- % inhibition [2]: 18%

Substance: 548159 (e[5mC]*eG*k[5mC]*dA*dT*dT*dG*dT*d[5mC]*dA*dG*d[5mC]*d[5mC]*k[5mC]*k[5mC]*eT; antisense) [compound 548159]
- % inhibition [2]: 59%

Substance: 548160 (eT*e[5mC]*kG*d[5mC]*dA*dT*dT*dG*dT*d[5mC]*dA*dG*d[5mC]*k[5mC]*k[5mC]*e[5mC]; antisense) [compound 548160]
- % inhibition [2]: 60%

Substance: 548161 (e[5mC]*eT*k[5mC]*dG*d[5mC]*dA*dT*dT*dG*dT*d[5mC]*dA*dG*k[5mC]*k[5mC]*e[5mC]; antisense) [compound 548161]
- % inhibition [2]: 59%

Substance: 548162 (e[5mC]*e[5mC]*kT*d[5mC]*dG*d[5mC]*dA*dT*dT*dG*dT*d[5mC]*dA*kG*k[5mC]*e[5mC]; antisense) [compound 548162]
- % inhibition [2]: 25%

Substance: 548163 (eA*e[5mC]*k[5mC]*dT*d[5mC]*dG*d[5mC]*dA*dT*dT*dG*dT*d[5mC]*kA*kG*e[5mC]; antisense) [compound 548163]
- % inhibition [2]: 46%

Substance: 548164 (eG*eA*k[5mC]*d[5mC]*dT*d[5mC]*dG*d[5mC]*dA*dT*dT*dG*dT*k[5mC]*kA*eG; antisense) [compound 548164]
- % inhibition [2]: 40%

Substance: 548165 (e[5mC]*eG*kA*d[5mC]*d[5mC]*dT*d[5mC]*dG*d[5mC]*dA*dT*dT*dG*kT*k[5mC]*eA; antisense) [compound 548165]
- % inhibition [2]: 53%

Substance: 548166 (eG*e[5mC]*kG*dA*d[5mC]*d[5mC]*dT*d[5mC]*dG*d[5mC]*dA*dT*dT*kG*kT*e[5mC]; antisense) [compound 548166]
- % inhibition [2]: 0%

Substance: 548167 (eT*eG*k[5mC]*dG*dA*d[5mC]*d[5mC]*dT*d[5mC]*dG*d[5mC]*dA*dT*kT*kG*eT; antisense) [compound 548167]
- % inhibition [2]: 36%

Substance: 548168 (eT*eT*kG*d[5mC]*dG*dA*d[5mC]*d[5mC]*dT*d[5mC]*dG*d[5mC]*dA*kT*kT*eG; antisense) [compound 548168]
- % inhibition [2]: 61%

Substance: 548169 (eG*eT*kT*dG*d[5mC]*dG*dA*d[5mC]*d[5mC]*dT*d[5mC]*dG*d[5mC]*kA*kT*eT; antisense) [compound 548169]
- % inhibition [2]: 7%

Substance: 548171 (e[5mC]*eA*kG*dT*dT*dG*d[5mC]*dG*dA*d[5mC]*d[5mC]*dT*d[5mC]*kG*k[5mC]*eA; antisense) [compound 548171]
- % inhibition [2]: 47%

Substance: 548172 (eT*e[5mC]*kA*dG*dT*dT*dG*d[5mC]*dG*dA*d[5mC]*d[5mC]*dT*k[5mC]*kG*e[5mC]; antisense) [compound 548172]
- % inhibition [2]: 0%

Substance: 548173 (e[5mC]*eT*k[5mC]*dA*dG*dT*dT*dG*d[5mC]*dG*dA*d[5mC]*d[5mC]*kT*k[5mC]*eG; antisense) [compound 548173]
- % inhibition [2]: 51%

Substance: 548175 (eA*eT*k[5mC]*dT*d[5mC]*dA*dG*dT*dT*dG*d[5mC]*dG*dA*k[5mC]*k[5mC]*eT; antisense) [compound 548175]
- % inhibition [2]: 0%

Substance: 548176 (eG*eA*kT*d[5mC]*dT*d[5mC]*dA*dG*dT*dT*dG*d[5mC]*dG*kA*k[5mC]*e[5mC]; antisense) [compound 548176]
- % inhibition [2]: 38%

Substance: 548177 (eA*eG*kA*dT*d[5mC]*dT*d[5mC]*dA*dG*dT*dT*dG*d[5mC]*kG*kA*e[5mC]; antisense) [compound 548177]
- % inhibition [2]: 45%

Substance: 548178 (eG*eA*kG*dA*dT*d[5mC]*dT*d[5mC]*dA*dG*dT*dT*dG*k[5mC]*kG*eA; antisense) [compound 548178]
- % inhibition [2]: 54%

Substance: 548179 (eG*eG*kA*dG*dA*dT*d[5mC]*dT*d[5mC]*dA*dG*dT*dT*kG*k[5mC]*eG; antisense) [compound 548179]
- % inhibition [2]: 52%

Substance: 548181 (eG*eT*k[5mC]*dA*dT*dG*dG*dA*dG*dA*dT*d[5mC]*dT*k[5mC]*kA*eG; antisense) [compound 548181]
- % inhibition [2]: 55%

Substance: 548182 (eA*eG*kT*d[5mC]*dA*dT*dG*dG*dA*dG*dA*dT*d[5mC]*kT*k[5mC]*eA; antisense) [compound 548182]
- % inhibition [2]: 55%

Substance: 548183 (e[5mC]*eA*kG*dT*d[5mC]*dA*dT*dG*dG*dA*dG*dA*dT*k[5mC]*kT*e[5mC]; antisense) [compound 548183]
- % inhibition [2]: 43%

Substance: 548184 (eA*e[5mC]*kA*dG*dT*d[5mC]*dA*dT*dG*dG*dA*dG*dA*kT*k[5mC]*eT; antisense) [compound 548184]
- % inhibition [2]: 73%

Substance: 548185 (eA*eA*k[5mC]*dA*d[5mC]*dA*d[5mC]*dA*dG*dT*d[5mC]*dA*dT*kG*kG*eA; antisense) [compound 548185]
- % inhibition [2]: 23%

Substance: 548186 (e[5mC]*eA*kA*d[5mC]*dA*d[5mC]*dA*d[5mC]*dA*dG*dT*d[5mC]*dA*kT*kG*eG; antisense) [compound 548186]
- % inhibition [2]: 0%

Substance: 548187 (e[5mC]*eA*kT*d[5mC]*d[5mC]*dT*dA*dT*d[5mC]*d[5mC]*dG*dT*dG*kT*kT*e[5mC]; antisense) [compound 548187]
- % inhibition [2]: 33%

Substance: 548189 (e[5mC]*eA*kT*dG*dA*dA*d[5mC]*dA*dT*d[5mC]*d[5mC]*dT*dA*kT*k[5mC]*e[5mC]; antisense) [compound 548189]
- % inhibition [2]: 24%

Substance: 548190 (eT*eA*kT*dT*d[5mC]*d[5mC]*dA*dT*dG*dA*dA*d[5mC]*dA*kT*k[5mC]*e[5mC]; antisense) [compound 548190]
- % inhibition [2]: 43%

Substance: 548191 (eG*eT*k[5mC]*dA*dA*d[5mC]*dA*dT*dA*dT*dT*d[5mC]*d[5mC]*kA*kT*eG; antisense) [compound 548191]
- % inhibition [2]: 0%

Substance: 548192 (e[5mC]*e[5mC]*kT*dG*dT*d[5mC]*dA*dA*d[5mC]*dA*dT*dA*dT*kT*k[5mC]*e[5mC]; antisense) [compound 548192]
- % inhibition [2]: 65%

Substance: 548193 (eT*eG*kT*d[5mC]*d[5mC]*dT*dG*dT*d[5mC]*dA*dA*d[5mC]*dA*kT*kA*eT; antisense) [compound 548193]
- % inhibition [2]: 58%

Substance: 548194 (eG*e[5mC]*k[5mC]*dA*dA*d[5mC]*dA*dG*dT*dT*dT*d[5mC]*dA*kA*k[5mC]*eT; antisense) [compound 548194]
- % inhibition [2]: 61%

Substance: 548196 (e[5mC]*eA*kA*dT*dA*dT*dT*dG*dA*d[5mC]*dT*dT*dT*kG*kG*eG; antisense) [compound 548196]
- % inhibition [2]: 6%

Substance: 548198 (eA*e[5mC]*kT*dG*d[5mC]*dA*dG*dG*d[5mC]*dA*dA*dT*dA*kT*kT*eT; antisense) [compound 548198]
- % inhibition [2]: 49%

Substance: 548199 (eG*e[5mC]*kA*d[5mC]*dT*dG*d[5mC]*dA*dG*dG*d[5mC]*dA*dA*kT*kA*eT; antisense) [compound 548199]
- % inhibition [2]: 24%

Substance: 548200 (e[5mC]*eT*kA*dA*dT*dG*dT*dG*dG*d[5mC]*dA*d[5mC]*dT*kG*k[5mC]*eA; antisense) [compound 548200]
- % inhibition [2]: 19%

Substance: 548202 (eG*e[5mC]*kT*dG*dT*dT*d[5mC]*dT*dA*dA*dT*dG*dT*kG*kG*e[5mC]; antisense) [compound 548202]
- % inhibition [2]: 9%

Substance: 548203 (eT*eG*kA*d[5mC]*dT*dA*dG*dT*dG*dA*dA*dT*dG*kG*k[5mC]*eT; antisense) [compound 548203]
- % inhibition [2]: 73%

Substance: 548204 (eT*e[5mC]*kT*dG*dA*d[5mC]*dT*dA*dG*dT*dG*dA*dA*kT*kG*eG; antisense) [compound 548204]
- % inhibition [2]: 25%

Substance: 548205 (eT*e[5mC]*kA*dA*dT*d[5mC]*dT*dG*dA*d[5mC]*dT*dA*dG*kT*kG*eA; antisense) [compound 548205]
- % inhibition [2]: 14%

Substance: 548206 (eG*eG*kT*d[5mC]*dA*dA*dT*d[5mC]*dT*dG*dA*d[5mC]*dT*kA*kG*eT; antisense) [compound 548206]
- % inhibition [2]: 45%

Substance: 548207 (e[5mC]*eT*kG*dG*dT*d[5mC]*dA*dA*dT*d[5mC]*dT*dG*dA*k[5mC]*kT*eA; antisense) [compound 548207]
- % inhibition [2]: 60%

Substance: 548208 (e[5mC]*eT*k[5mC]*dT*dG*dG*dT*d[5mC]*dA*dA*dT*d[5mC]*dT*kG*kA*e[5mC]; antisense) [compound 548208]
- % inhibition [2]: 19%
